Positions of bridges follow the written chain, without caps; N, C: chain ends. Non-standard residues stand in square brackets, D forms with d. Residues, ends and D or L forms follow the SMILES beside them. Phe(4-Cl) = N[C@@H](Cc1ccc(Cl)cc1)C(=O)O; 2Nal = N[C@@H](Cc1ccc2ccccc2c1)C(=O)O
Key:
Type in all cases: cell-based
[1] = target: Sodium channel protein type 1 subunit alpha (Homo sapiens) (UniProt P35498); assay: Activation of human Nav1.1 expressed in HEK293 cells assessed as ratio of compound activation AUC to baseline activation AUC at 3.3 uM at -120 mV holding potential by Qpatch assay
[2] = target: Sodium channel protein type 1 subunit alpha (Homo sapiens) (UniProt P35498); assay: Activation of human Nav1.1 expressed in HEK293 cells assessed as ratio of compound activation AUC to baseline activation AUC at 0.12 uM at -120 mV holding potential by Qpatch assay
[3] = target: Sodium channel protein type 1 subunit alpha (Homo sapiens) (UniProt P35498); assay: Activation of human Nav1.1 expressed in HEK293 cells assessed as ratio of compound activation AUC to baseline activation AUC at 0.37 uM at -120 mV holding potential by Qpatch assay
[4] = target: Sodium channel protein type 1 subunit alpha (Homo sapiens) (UniProt P35498); assay: Activation of human Nav1.1 expressed in HEK293 cells assessed as ratio of compound activation AUC to baseline activation AUC at 1.11 uM at -120 mV holding potential by Qpatch assay
[5] = target: Sodium channel protein type 9 subunit alpha (Homo sapiens) (UniProt Q15858); assay: Activation of human Nav1.7 expressed in HEK293 cells assessed as ratio of compound activation AUC to baseline activation AUC at 3.3 uM at -120 mV holding potential by Qpatch assay
[6] = target: Sodium channel protein type 8 subunit alpha (Homo sapiens) (UniProt Q9UQD0); assay: Activation of human Nav1.6 expressed in HEK293 cells assessed as ratio of compound activation AUC to baseline activation AUC at 3.3 uM at -120 mV holding potential by Qpatch assay
[7] = target: Sodium channel protein type 4 subunit alpha (Homo sapiens) (UniProt P35499); assay: Activation of human Nav1.4 expressed in HEK293 cells assessed as ratio of compound activation AUC to baseline activation AUC at 3.3 uM at -120 mV holding potential by Qpatch assay
[8] = target: Sodium channel protein type 5 subunit alpha (Homo sapiens, UniProt Q14524); assay: Activation of human Nav1.5 expressed in HEK293 cells assessed as ratio of compound activation AUC to baseline activation AUC at 3.3 uM at -120 mV holding potential by Qpatch assay; details: hek293, 3.3 µM
[9] = target: Sodium channel protein type 2 subunit alpha (Homo sapiens) (UniProt Q99250); assay: Activation of human Nav1.2 expressed in CHOK1 cells assessed as ratio of compound activation AUC to baseline activation AUC at 3.3 uM at -120 mV holding potential by Qpatch assay
[10] = target: Sodium channel protein type 3 subunit alpha (Homo sapiens) (UniProt Q9NY46); assay: Activation of human Nav1.3 expressed in CHOK1 cells assessed as ratio of compound activation AUC to baseline activation AUC at 3.3 uM at -120 mV holding potential by Qpatch assay

Chain of Sodium channel protein type 8 subunit alpha (Homo sapiens) (Q9UQD0 whole entry, looked up): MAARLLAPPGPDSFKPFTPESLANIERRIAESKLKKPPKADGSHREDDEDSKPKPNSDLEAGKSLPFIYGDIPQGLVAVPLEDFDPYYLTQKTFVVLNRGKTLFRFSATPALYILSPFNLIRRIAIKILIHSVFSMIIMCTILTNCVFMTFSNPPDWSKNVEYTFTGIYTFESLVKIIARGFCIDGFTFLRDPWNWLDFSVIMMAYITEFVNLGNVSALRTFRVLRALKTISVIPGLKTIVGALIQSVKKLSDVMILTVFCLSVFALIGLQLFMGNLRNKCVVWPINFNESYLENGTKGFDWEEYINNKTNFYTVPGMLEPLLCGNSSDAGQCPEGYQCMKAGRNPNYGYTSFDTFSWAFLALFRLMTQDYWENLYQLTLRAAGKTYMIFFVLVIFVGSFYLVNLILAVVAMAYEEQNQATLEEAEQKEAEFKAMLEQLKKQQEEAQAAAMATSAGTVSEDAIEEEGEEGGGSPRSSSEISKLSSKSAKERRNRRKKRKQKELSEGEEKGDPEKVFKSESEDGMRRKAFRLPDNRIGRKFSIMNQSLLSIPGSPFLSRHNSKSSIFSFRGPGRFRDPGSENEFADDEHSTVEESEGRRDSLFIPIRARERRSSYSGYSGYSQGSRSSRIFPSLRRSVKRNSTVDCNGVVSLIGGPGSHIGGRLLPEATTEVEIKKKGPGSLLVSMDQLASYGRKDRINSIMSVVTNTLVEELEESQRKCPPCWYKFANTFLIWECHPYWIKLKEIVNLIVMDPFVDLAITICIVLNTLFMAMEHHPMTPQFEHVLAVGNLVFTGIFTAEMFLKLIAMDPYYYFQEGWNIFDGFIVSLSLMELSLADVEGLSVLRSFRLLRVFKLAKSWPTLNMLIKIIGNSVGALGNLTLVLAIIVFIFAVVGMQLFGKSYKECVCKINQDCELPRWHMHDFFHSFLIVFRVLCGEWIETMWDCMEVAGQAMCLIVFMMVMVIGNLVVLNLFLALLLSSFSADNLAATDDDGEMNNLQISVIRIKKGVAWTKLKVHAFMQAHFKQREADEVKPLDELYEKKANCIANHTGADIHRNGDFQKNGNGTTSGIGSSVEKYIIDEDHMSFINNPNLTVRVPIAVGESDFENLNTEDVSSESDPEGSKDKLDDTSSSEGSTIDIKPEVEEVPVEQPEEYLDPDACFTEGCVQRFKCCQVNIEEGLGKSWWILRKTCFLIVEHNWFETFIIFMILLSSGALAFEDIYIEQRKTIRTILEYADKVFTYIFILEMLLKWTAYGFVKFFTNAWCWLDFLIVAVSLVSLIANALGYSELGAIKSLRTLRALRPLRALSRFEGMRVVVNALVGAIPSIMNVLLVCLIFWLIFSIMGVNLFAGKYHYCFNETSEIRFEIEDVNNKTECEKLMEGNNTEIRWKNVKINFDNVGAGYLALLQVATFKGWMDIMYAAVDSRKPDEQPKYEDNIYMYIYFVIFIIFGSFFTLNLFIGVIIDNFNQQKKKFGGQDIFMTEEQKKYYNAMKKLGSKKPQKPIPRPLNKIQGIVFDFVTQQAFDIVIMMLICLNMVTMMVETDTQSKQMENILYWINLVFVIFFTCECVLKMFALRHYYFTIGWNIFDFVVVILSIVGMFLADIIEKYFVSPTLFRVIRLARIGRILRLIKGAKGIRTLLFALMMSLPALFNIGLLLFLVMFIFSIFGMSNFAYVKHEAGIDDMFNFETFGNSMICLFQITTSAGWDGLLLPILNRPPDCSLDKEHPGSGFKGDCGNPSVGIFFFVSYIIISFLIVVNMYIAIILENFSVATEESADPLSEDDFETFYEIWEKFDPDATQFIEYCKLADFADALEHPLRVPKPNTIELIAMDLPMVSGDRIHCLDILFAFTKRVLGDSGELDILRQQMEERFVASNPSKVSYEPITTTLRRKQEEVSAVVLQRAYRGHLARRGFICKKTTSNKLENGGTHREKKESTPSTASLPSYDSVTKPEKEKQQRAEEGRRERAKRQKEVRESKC
Chain of Sodium channel protein type 2 subunit alpha (Homo sapiens) (Q99250 whole entry, looked up): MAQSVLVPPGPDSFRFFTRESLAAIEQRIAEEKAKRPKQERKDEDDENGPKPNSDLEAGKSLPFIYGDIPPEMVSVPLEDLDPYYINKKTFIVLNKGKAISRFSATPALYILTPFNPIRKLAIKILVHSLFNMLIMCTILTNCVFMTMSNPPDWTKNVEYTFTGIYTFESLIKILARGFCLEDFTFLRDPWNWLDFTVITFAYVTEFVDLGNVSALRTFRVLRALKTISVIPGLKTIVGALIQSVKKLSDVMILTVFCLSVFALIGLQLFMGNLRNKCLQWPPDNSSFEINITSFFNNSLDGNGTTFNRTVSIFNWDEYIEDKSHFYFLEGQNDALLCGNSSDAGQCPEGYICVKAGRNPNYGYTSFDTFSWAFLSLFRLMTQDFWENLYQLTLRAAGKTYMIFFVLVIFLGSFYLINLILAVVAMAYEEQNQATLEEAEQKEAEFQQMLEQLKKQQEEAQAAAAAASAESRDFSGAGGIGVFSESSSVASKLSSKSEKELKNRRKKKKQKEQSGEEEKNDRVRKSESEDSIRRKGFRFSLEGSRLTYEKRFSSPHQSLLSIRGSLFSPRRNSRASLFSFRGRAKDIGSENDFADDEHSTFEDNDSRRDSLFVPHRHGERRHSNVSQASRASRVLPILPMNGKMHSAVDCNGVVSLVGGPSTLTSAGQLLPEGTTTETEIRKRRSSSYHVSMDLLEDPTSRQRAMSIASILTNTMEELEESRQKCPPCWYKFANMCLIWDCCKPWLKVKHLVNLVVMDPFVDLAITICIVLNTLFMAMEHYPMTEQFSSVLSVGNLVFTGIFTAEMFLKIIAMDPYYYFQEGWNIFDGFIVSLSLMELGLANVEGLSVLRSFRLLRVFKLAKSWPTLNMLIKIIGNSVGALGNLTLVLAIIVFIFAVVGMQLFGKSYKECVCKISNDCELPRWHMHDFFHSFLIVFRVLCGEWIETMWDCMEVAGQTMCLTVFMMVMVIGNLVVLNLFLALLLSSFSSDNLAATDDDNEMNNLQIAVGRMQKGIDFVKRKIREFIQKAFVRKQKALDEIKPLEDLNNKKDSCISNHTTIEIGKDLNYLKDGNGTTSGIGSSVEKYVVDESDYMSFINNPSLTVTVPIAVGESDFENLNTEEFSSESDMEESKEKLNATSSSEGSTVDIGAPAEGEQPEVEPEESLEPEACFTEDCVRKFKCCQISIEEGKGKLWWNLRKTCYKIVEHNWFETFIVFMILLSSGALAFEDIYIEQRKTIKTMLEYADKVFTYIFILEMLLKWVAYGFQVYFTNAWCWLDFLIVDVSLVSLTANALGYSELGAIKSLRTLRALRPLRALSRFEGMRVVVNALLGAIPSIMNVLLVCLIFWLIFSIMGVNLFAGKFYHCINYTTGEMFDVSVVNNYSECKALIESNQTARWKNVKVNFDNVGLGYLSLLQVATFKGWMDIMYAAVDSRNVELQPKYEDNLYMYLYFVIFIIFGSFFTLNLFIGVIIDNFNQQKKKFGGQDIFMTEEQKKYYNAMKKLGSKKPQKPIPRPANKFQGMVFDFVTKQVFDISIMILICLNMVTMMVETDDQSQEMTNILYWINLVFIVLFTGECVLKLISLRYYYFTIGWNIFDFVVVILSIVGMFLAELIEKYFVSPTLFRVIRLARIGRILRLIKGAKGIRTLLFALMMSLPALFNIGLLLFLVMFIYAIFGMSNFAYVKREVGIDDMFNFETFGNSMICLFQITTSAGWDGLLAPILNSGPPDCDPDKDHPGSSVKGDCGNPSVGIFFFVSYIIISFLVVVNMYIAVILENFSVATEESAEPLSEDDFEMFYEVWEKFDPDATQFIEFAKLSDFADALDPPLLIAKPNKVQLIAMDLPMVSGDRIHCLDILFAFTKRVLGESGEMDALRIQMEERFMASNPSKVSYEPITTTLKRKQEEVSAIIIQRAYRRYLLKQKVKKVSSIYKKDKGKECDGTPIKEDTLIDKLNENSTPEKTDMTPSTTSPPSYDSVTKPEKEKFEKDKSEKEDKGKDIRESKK

Row | Structure (SMILES) | Ratio AUC [1] | Ratio AUC [2] | Ratio AUC [3] | Ratio AUC [4] | Ratio AUC [5] | Ratio AUC [6] | Ratio AUC [7] | Ratio AUC [8] | Ratio AUC [9] | Ratio AUC [10]
1 | CC[C@H](C)[C@H](NC(=O)[C@@H](N)CCCNC(=N)N)C(=O)N[C@@H](CCCCN)C(=O)N[C@H](C(=O)N1CCC[C@@H]1C(=O)N[C@@H](CC(C)C)C(=O)N[C@@H](Cc1ccccc1)C(=O)N[C@@H](CC(=O)O)C(=O)N[C@@H](CCC(N)=O)C(=O)N[C@@H](CC(C)C)C(=O)N[C@@H](CO)C(=O)N[C@@H](CCCNC(=N)N)C(=O)N[C@@H](CC(C)C)C(N)=O)[C@@H](C)CC | 1.1 | 1 | 1.1 | 1.1 | – | – | – | – | – | –
2 | CC[C@H](C)[C@H](NC(=O)[C@H](CCCCN)NC(=O)[C@@H](NC(=O)[C@@H](N)CCCNC(=N)N)[C@@H](C)CC)C(=O)N[C@H](C)C(=O)N[C@@H](CC(C)C)C(=O)N[C@@H](Cc1ccccc1)C(=O)N[C@@H](CC(=O)O)C(=O)N[C@@H](CCC(N)=O)C(=O)N[C@@H](CC(C)C)C(=O)N[C@@H](CO)C(=O)N[C@@H](CCCNC(=N)N)C(=O)N[C@@H](CC(C)C)C(N)=O | 1.1 | 0.1 | 0.1 | 1 | – | – | – | – | – | –
3 | CC[C@H](C)[C@@H]1NC(=O)[C@H](CCCCN)NC(=O)[C@H]([C@@H](C)CC)NC(=O)[C@@H](N)CSSC[C@@H](C(=O)N[C@@H](CCC(N)=O)C(=O)N[C@@H](CC(C)C)C(=O)N[C@@H](CO)C(=O)N[C@@H](CCCNC(=N)N)C(=O)N[C@@H](CC(C)C)C(N)=O)NC(=O)[C@H](Cc2ccccc2)NC(=O)[C@H](CC(C)C)NC(=O)CNC1=O (H-CIKIGLFCQLSRL-NH2; disulfide 1-8) | 1.1 | 1 | 1.1 | 1 | – | – | – | – | – | –
4 | CC[C@H](C)[C@H](NC(=O)[C@H](CCCCN)NC(=O)[C@@H](NC(=O)[C@@H](N)CC(=O)O)[C@@H](C)CC)C(=O)NCC(=O)N[C@@H](CC(C)C)C(=O)N[C@@H](Cc1ccccc1)C(=O)N[C@@H](CCCNC(=N)N)C(=O)N[C@@H](CCC(N)=O)C(=O)N[C@@H](CC(C)C)C(=O)N[C@@H](CO)C(=O)N[C@@H](CCCNC(=N)N)C(=O)N[C@@H](CC(C)C)C(N)=O (H-DIKIGLFRQLSRL-NH2) | 1.1 | 1 | 1.1 | 1.1 | – | – | – | – | – | –
5 | CC[C@H](C)[C@@H]1NC(=O)[C@@H](NC(=O)[C@@H](NC(=O)[C@@H](N)CCCNC(=N)N)[C@@H](C)CC)CSSC[C@@H](C(=O)N[C@@H](CCC(N)=O)C(=O)N[C@@H](CC(C)C)C(=O)N[C@@H](CO)C(=O)N[C@@H](CCCNC(=N)N)C(=O)N[C@@H](CC(C)C)C(N)=O)NC(=O)[C@H](Cc2ccccc2)NC(=O)[C@H](CC(C)C)NC(=O)CNC1=O (H-RICIGLFCQLSRL-NH2; disulfide 3-8) | 1 | 1.1 | 0.9 | 0.9 | – | – | – | – | – | –
6 | CC[C@H](C)[C@H](NC(=O)[C@H](CC(=O)O)NC(=O)[C@@H](NC(=O)[C@@H](N)CCCNC(=N)N)[C@@H](C)CC)C(=O)NCC(=O)N[C@@H](CC(C)C)C(=O)N[C@@H](Cc1ccccc1)C(=O)N[C@@H](CCCCN)C(=O)N[C@@H](CCC(N)=O)C(=O)N[C@@H](CC(C)C)C(=O)N[C@@H](CO)C(=O)N[C@@H](CCCNC(=N)N)C(=O)N[C@@H](CC(C)C)C(N)=O (H-RIDIGLFKQLSRL-NH2) | 1.1 | 1.1 | 1.1 | 1.1 | – | – | – | – | – | –
7 | CC[C@H](C)[C@H](NC(=O)[C@H](CCCCN)NC(=O)[C@@H](NC(=O)[C@@H](N)CCCNC(=N)N)[C@@H](C)CC)C(=O)NCC(=O)N[C@@H](CC(C)C)C(=O)N[C@@H](Cc1c[nH]c2ccccc12)C(=O)N[C@@H](CC(=O)O)C(=O)N[C@@H](CCC(N)=O)C(=O)N[C@@H](CC(C)C)C(=O)N[C@@H](CO)C(=O)N[C@@H](CCCNC(=N)N)C(=O)N[C@@H](CC(C)C)C(N)=O (H-RIKIGLWDQLSRL-NH2) | 1 | 1 | 0.9 | 0.9 | – | – | – | – | – | –
8 | CC[C@H](C)[C@H](NC(=O)[C@H](CCCCN)NC(=O)[C@@H](NC(=O)[C@@H](N)CCCNC(=N)N)[C@@H](C)CC)C(=O)NCC(=O)N[C@@H](CC(C)C)C(=O)N[C@@H](Cc1ccc2ccccc2c1)C(=O)N[C@@H](CC(=O)O)C(=O)N[C@@H](CCC(N)=O)C(=O)N[C@@H](CC(C)C)C(=O)N[C@@H](CO)C(=O)N[C@@H](CCCNC(=N)N)C(=O)N[C@@H](CC(C)C)C(N)=O (H-RIKIGL[2Nal]DQLSRL-NH2) | 10.7 | 1.3 | 2.1 | 5 | 4 | 6.7 | 1.6 | 4 | 2.4 | 1.9
9 | CC[C@H](C)[C@H](NC(=O)[C@H](CCCNC(=N)N)NC(=O)[C@@H](NC(=O)[C@@H](N)CCCNC(=N)N)[C@@H](C)CC)C(=O)NCC(=O)N[C@@H](CC(C)C)C(=O)N[C@@H](Cc1ccccc1)C(=O)N[C@@H](CC(=O)O)C(=O)N[C@@H](CCC(N)=O)C(=O)N[C@@H](CC(C)C)C(=O)N[C@@H](Cc1ccccc1)C(=O)N[C@@H](CCCNC(=N)N)C(=O)N[C@@H](CC(C)C)C(N)=O (H-RIRIGLFDQLFRL-NH2) | 2.7 | 1 | 1.1 | 1.6 | – | – | – | – | – | –
10 | CC[C@H](C)[C@H](NC(=O)[C@H](CCCNC(=N)N)NC(=O)[C@@H](NC(=O)[C@@H](N)CCCNC(=N)N)[C@@H](C)CC)C(=O)NCC(=O)N[C@@H](CC(C)C)C(=O)N[C@@H](Cc1ccccc1)C(=O)N[C@@H](CC(=O)O)C(=O)N[C@@H](CCC(N)=O)C(=O)N[C@@H](CC(C)C)C(=O)N[C@@H](CC(C)C)C(=O)N[C@@H](CCCNC(=N)N)C(=O)N[C@@H](CC(C)C)C(N)=O (H-RIRIGLFDQLLRL-NH2) | 5.8 | 1.1 | 1.6 | 2.9 | – | – | – | – | – | –
11 | CC[C@H](C)[C@H](NC(=O)[C@H](CCCNC(=N)N)NC(=O)[C@@H](NC(=O)[C@@H](N)CCCNC(=N)N)[C@@H](C)CC)C(=O)NCC(=O)N[C@@H](CC(C)C)C(=O)N[C@@H](Cc1ccccc1)C(=O)N[C@@H](CC(=O)O)C(=O)N[C@@H](CCC(N)=O)C(=O)N[C@@H](CC(C)C)C(=O)N[C@@H](CO)C(=O)N[C@@H](CCCNC(=N)N)C(=O)N[C@@H](CC(C)C)C(N)=O (H-RIRIGLFDQLSRL-NH2) | 2 | 1 | 1.1 | 1.3 | – | – | – | – | – | –
12 | CC[C@H](C)[C@H](NC(=O)[C@H](CCCNC(=N)N)NC(=O)[C@@H](NC(=O)[C@@H](N)CCCNC(=N)N)[C@@H](C)CC)C(=O)NCC(=O)N[C@@H](CC(C)C)C(=O)N[C@@H](Cc1ccccc1)C(=O)N[C@@H](CC(=O)O)C(=O)N[C@@H](CCC(N)=O)C(=O)N[C@@H](CC(C)C)C(=O)N[C@@H](Cc1c[nH]c2ccccc12)C(=O)N[C@@H](CCCNC(=N)N)C(=O)N[C@@H](CC(C)C)C(N)=O (H-RIRIGLFDQLWRL-NH2) | 4.3 | 1.2 | 1.6 | 2.8 | – | – | – | – | – | –
13 | CC[C@H](C)[C@H](NC(=O)[C@H](CCCNC(=N)N)NC(=O)[C@@H](NC(=O)[C@@H](N)CCCNC(=N)N)[C@@H](C)CC)C(=O)NCC(=O)N[C@@H](CC(C)C)C(=O)N[C@@H](Cc1ccccc1)C(=O)N[C@@H](CC(=O)O)C(=O)N[C@@H](CCC(N)=O)C(=O)N[C@@H](CC(C)C)C(=O)N[C@@H](Cc1ccc(O)cc1)C(=O)N[C@@H](CCCNC(=N)N)C(=O)N[C@@H](CC(C)C)C(N)=O (H-RIRIGLFDQLYRL-NH2) | 2 | 1 | 1.1 | 1.5 | – | – | – | – | – | –
14 | CC[C@H](C)[C@H](NC(=O)[C@H](CCCNC(=N)N)NC(=O)[C@@H](NC(=O)[C@@H](N)CCCNC(=N)N)[C@@H](C)CC)C(=O)NCC(=O)N[C@@H](CC(C)C)C(=O)N[C@@H](Cc1ccccc1)C(=O)N[C@@H](CC(=O)O)C(=O)N[C@@H](CCC(N)=O)C(=O)N[C@@H](CC(C)C)C(=O)N[C@@H](Cc1ccc(Cl)cc1)C(=O)N[C@@H](CCCNC(=N)N)C(=O)N[C@@H](CC(C)C)C(N)=O (H-RIRIGLFDQL[Phe(4-Cl)]RL-NH2) | 3.5 | 1.1 | 1.2 | 1.8 | – | – | – | – | – | –
15 | CC[C@H](C)[C@H](NC(=O)[C@H](CCCCN)NC(=O)[C@H](CC(C)C)NC(=O)[C@@H](N)CCCNC(=N)N)C(=O)NCC(=O)N[C@@H](CC(C)C)C(=O)N[C@@H](Cc1ccccc1)C(=O)N[C@@H](CC(=O)O)C(=O)N[C@@H](CCC(N)=O)C(=O)N[C@@H](CC(C)C)C(=O)N[C@@H](CO)C(=O)N[C@@H](CCCNC(=N)N)C(=O)N[C@@H](CC(C)C)C(N)=O (H-RLKIGLFDQLSRL-NH2) | 1 | 1 | 1 | 1 | – | – | – | – | – | –

Source: ChEMBL document CHEMBL4342489, “Structure-Activity Relationship Evaluation of Wasp Toxin β-PMTX Leads to Analogs with Superior Activity for Human Neuronal Sodium Channels” (ACS Med Chem Lett, 2020)
